These results are taken from US20250340561A1, “QUINAZOLINE COMPOUND FOR INDUCING DEGRADATION OF G12D MUTANT KRAS PROTEIN” (Astellas Pharma Inc., priority 2021, published 2025).

The subject of this experiment is human KRAS G12D mutant-positive PK-59 pancreatic cancer cell line-derived xenograft. Kind of experiment: Test Example 4: anti-tumor activity in PK-59 xenograft mice. Particulars: PK-59 xenograft nude mice, 10 mg/kg into tail vein, twice with an interval of once a week. It counts as in vivo. As to the method:
Test Example 4: Evaluation of Anti-Tumor Activity in Human KRAS G12D Mutant-Positive PK-59 Pancreatic Cancer Cell Line-Derived Xenograft Mice
PK-59 cells (RTKEN BRC, RCB 1901) were cultured using a RPMI 1640 medium containing 10% fetal bovine serum in the presence of 5% CO2 at 37° C. The PK-59 cells were collected and suspended in PBS, and after adding an equal amount of Matrigel (from Becton, Dickinson and Company), the cell suspension prepared at 1.0×10^7 to 2.0×10^7 cells/mL was subcutaneously inoculated in a volume of 100 μL in 4- to 6-week-old male nude mice (CAnN.Cg-Foxn1^nu/CrlCrlj (nu/nu), from Charles River Laboratories Japan). About two weeks after the inoculation, the mice were divided into groups so that all the groups had approximately the same tumor volume and body weight, and administration of test compounds was started on the next day. The study was conducted for 5 mice each of a vehicle group and test compound administration groups. The compounds of Example 8, Example 48 and Example 70 were dissolved in a solvent containing ethanol (from FUJIFILM Wako Pure Chemical Corporation), a 5% glucose solution (from Otsuka Pharmaceutical), 1M hydrochloric acid (from Kanto Chemical Co., Inc.), an aqueous 50% (2-hydroxypropyl)-β-cyclodextrin (HP-βCD) solution (from ROQUETTE), HCO-40 (from Nikko Chemicals Co., Ltd.) and an aqueous 1M sodium hydroxide solution (from Kanto Chemical Co., Inc.) at a liquid amount ratio of 4:84.4:1.1:1:9:0.5. The compounds of Example 22 and Example 26 were dissolved in a solvent containing propylene glycol (from FUJIFILM Wako Pure Chemical Corporation), Tween80 (from Nacalai Tesque) and Otsuka normal saline (from Otsuka Pharmaceutical) at a liquid amount ratio of 6.7:3.3:90. The compound of Example 39 was dissolved in a solvent containing propylene glycol, ethanol, an aqueous 50% HP-PCD solution, HCO-40 and a 5% glucose solution at a liquid amount ratio of 10:8:10:10:62. The test compounds dissolved in the respective solvents or the solvents were administered into tail vein. The administration was performed twice with an interval of once a week. The tumor sizes and the body weights were measured twice a week. The tumor volumes were calculated using the following equation.
[Tumor volume (mm^3)]=[Major axis of tumor (mm)]×[Minor axis of tumor (mm)]^2×0.5
The tumor growth inhibitions (%) by the test compounds were calculated with the tumor volumes of the test compound administration groups on the previous day of the start of the administration taken as 100% inhibition and the tumor volumes of the vehicle groups two weeks after the initial administration taken as 0% inhibition. In addition, when the tumor volume of a test compound administration group was smaller than the tumor volume on the previous day of the start of the administration, the tumor regression (%) by the test compound was calculated with the tumor volume on the previous day of the start of the administration taken as 0% regression and with the tumor volume 0 taken as 100% regression. The molecular weights of the test compounds were calculated as the molecular weights of the dihydrochloride for Example No. 22 and the free forms forming no salt for the remaining Example Nos. The results for some test compounds of the formula (I) are shown in Table 5.
For the compound `Cc1ncsc1-c1ccc([C@H](CO)NC(=O)[C@@H]2C[C@@H](O)CN2C(=O)[C@H](C(C)C)n2cc(-c3ccc(COc4c(-c5c(C)c(F)cc6[nH]ncc56)c(C5CC5)cc5c(N6C[C@@H]7C[C@H]6CN7)nc(OC6CCOCC6)nc45)cc3)nn2)cc1` [Example 8, (4R)-1-[(2S)-2-(4-{4-[({6-cyclopropyl-4-[(1S,4S)-2,5-diazabicyclo[2.2.1]heptan-2-yl]-7-(6-fluoro-5-methyl-1H-indazol-4-yl)-2-[(oxan-4-yl)oxy]quinazolin-8-yl}oxy)methyl]phenyl}-1H-1,2,3-triazol-1-yl)-3-methylbutanoyl]-4-hydroxy-N-{(1R)-2-hydroxy-1-[4-(4-methyl-1,3-thiazol-5-yl)phenyl]ethyl}-L-prolinamide], the “Anti-Tumor Activity Two Weeks After Initial Administration (tumor growth inhibition)” value is 98% inhibition.

Regarding `Cc1c(F)cc2[nH]ncc2c1-c1c(C2CC2)cc2c(N3C[C@@H]4C[C@H]3CN4)nc(OC3CCOCC3)nc2c1OCc1ccc(-c2cn([C@H](C(=O)N3C[C@H](O)C[C@H]3C(=O)N[C@@H](CO)c3ccc(-c4ccnn4C)cc3)C(C)C)nn2)cc1` [Example 22], the “Anti-Tumor Activity Two Weeks After Initial Administration (tumor growth inhibition)” value amounted to 93% inhibition. For the compound `CCn1nccc1-c1ccc([C@H](CO)NC(=O)[C@@H]2C[C@@H](O)CN2C(=O)[C@H](C(C)C)n2cc(-c3ccc(COc4c(-c5c(C)c(F)cc6[nH]ncc56)c(C5CC5)cc5c(N6C[C@@H]7C[C@H]6CN7)nc(OC6CCOCC6)nc45)cc3)nn2)cc1` [Example 26], the “Anti-Tumor Activity Two Weeks After Initial Administration (tumor growth inhibition)” value came out at 94% inhibition. In the case of `CO[C@H](C)[C@@H](C)Oc1nc(N2C[C@@H]3C[C@H]2CN3)c2cc(C3CC3)c(-c3c(C)c(F)cc4[nH]ncc34)c(OCc3ccc(-c4cn([C@H](C(=O)N5C[C@H](O)C[C@H]5C(=O)N[C@@H](CO)c5ccc(-c6scnc6C)cc5)C(C)C)nn4)cc3)c2n1` [Example 39], the “Anti-Tumor Activity Two Weeks After Initial Administration (tumor regression)” value was 13% regression. With `CO[C@@H](C)COc1nc(N2C[C@@H]3C[C@H]2CN3)c2cc(C3CC3)c(-c3c(C)c(F)cc4[nH]ncc34)c(OCc3ccc(-c4cn([C@H](C(=O)N5C[C@H](O)C[C@H]5C(=O)N[C@@H](CO)c5ccc(-c6scnc6C)cc5)C(C)C)nn4)cc3)c2n1` [Example 48], the “Anti-Tumor Activity Two Weeks After Initial Administration (tumor regression)” value is reported as 32% regression.

On to `CCn1nccc1-c1ccc([C@H](CO)NC(=O)[C@@H]2C[C@@H](O)CN2C(=O)[C@H](C(C)C)n2cc(-c3ccc(COc4c(-c5c(C)c(F)cc6[nH]ncc56)c(C5CC5)cc5c(N6C[C@@H]7C[C@H]6CN7)nc(OC[C@H](C)OC)nc45)cc3)nn2)cc1` [Example 70], for which the “Anti-Tumor Activity Two Weeks After Initial Administration (tumor regression)” value is on record as 42% regression.
